Measured values published in US8901294B2, “MRI contrast agent having gadolinium complex” (priority 2010, dated 2014).
Where two headings read alike, the source gives them in different places. Marks after values point to notes of the source that are not given here.

Key:
[1] = Relaxation times (T1, T2) and relaxivities (R1, R2) at 1.5 T; type: physicochemical; conditions: 1.5 T; mean value(±SD)
Description: T1 measurements were carried out using an inversion recovery method with a variable inversion time (TI) at 1.5 T. The MR images were acquired at 35 different TI values ranging from 50 to 1750 ms. T1 relaxation times were obtained from the nonlinear least-squares fit of the signal intensity measured at each T1 value. For T2 measurements the CPMG (Carr-Purcell-Meiboon-Gill) pulse sequence was adapted for multiple spin-echo measurements. Thirty-four images were acquired with 34 different echo time (TE) values. T2 relaxation times were obtained from the nonlinear least-squares fit of the mean pixel values for the multiple spin-echo measurements at each echo time. Relaxivities were then calculated as an inverse (R=1/s·mM) of relaxation time per mM. The determined relaxation times and relaxivities are finally transformed to a phantom map. The phantom images were obtained with the same concentration of Dotarem® and gadolinium complexes or comparative purposes. […] Table 2 summarizes the relaxation times and relaxivities for gadolinium complexes of the present invention along with other Gd-complexes.

[2] = literature data, cited from earlier work; for LogK [GdL]/[Gd][L] (stability constant): 25° C., μ = 0.10M (KCl); for logKsel(Gd/Ca) (selectivity constant): Gd over Ca; for logKsel(Gd/Cu) (selectivity constant): Gd over Cu; for logKsel(Gd/Zn) (selectivity constant): Gd over Zn; for pGd: pM = −log[M]free at pH7.4, [M]total = 1 μmol/dm^3, [L]total = 1.1 μmol/dm^3
[3] = 25° C., μ = 0.10M (KCl); literature data; cited from earlier work
[4] = Transmetalation kinetics: evolution of paramagnetic relaxation rate R1P(t)/R1P(0) in presence of ZnCl2; type: physicochemical; conditions: phosphate-buffered solution pH 7.4, 2.5 mmol/L Gd-complex and 2.5 mmol/L ZnCl2, 72 hours
Excerpt: […]. The relative value of R1^P at time t, R1^P(t)/R1^P(0), is therefore a good estimate of the extent of transmetalation. The evolution of R1^P(t)/R1^P(0) over time gives relevant information about the kinetics of the reaction, whereas the plateau value theoretically reached at t=∞ will reflect the thermodynamic aspect.
Accordingly, in order to investigate the transmetalation kinetics of the gadolinium complexes according to the present invention, the evolution of water proton relaxation rate (R1^P) of a phosphate-buffered solution (pH 7.4) containing 2.5 mmol/L of Gd-complex and 2.5 mmol/L of ZnCl2 with time was measured. To measure the change in the relaxation rate, 10 μL of a ZnCl2 solution (250 mmol/L) was added to 1 mL of a buffered solution of the Gd-complex and the mixture was vigorously stirred. The same experiment was performed with Dotarem®, Omniscan®, Multihance®, Primovist® and ethyl tranexamate (6) with zinc acetate for comparison. The measurement was made on a 3T whole body system (Magnetom Tim Trip; Simens, Germany) at room temperature.

[5] = reference values from ref. 8 or 9; cited from earlier work
[6] = for logKCaL(pH7.4) (conditional stability constant): pH 7.4; for pCa: pM = −log[M]free at pH7.4, [M]total = 1 μmol/dm^3, [L]total = 1.1 μmol/dm^3
[7] = for logKCuL(PH7.4) (conditional stability constant): pH 7.4; for pCu: pM = −log[M]free at pH7.4, [M]total = 1 μmol/dm^3, [L]total = 1.1 μmol/dm^3
[8] = 25° C., μ = 0.10M (KCl)
[9] = for logKZnL(pH7.4) (conditional stability constant): pH 7.4; for pZn: pM = −log[M]free at pH7.4, [M]total = 1 μmol/dm^3, [L]total = 1.1 μmol/dm^3
[10] = for logKsel(Gd/Ca) (selectivity constant): Gd over Ca; for logKsel(Gd/Ca) (selectivity constant) / logKsel(Gd/Cu) (selectivity constant) / logKsel(Gd/Zn) (selectivity constant): 25° C., μ = 0.10M (KCl); for logKsel(Gd/Cu) (selectivity constant): Gd over Cu; for logKsel(Gd/Zn) (selectivity constant): Gd over Zn; for logKGdL(pH7.4) (conditional stability constant): pH 7.4; for pGd: pM = −log[M]free at pH7.4, [M]total = 1 μmol/dm^3, [L]total = 1.1 μmol/dm^3
[11] = literature data, cited from earlier work; for LogK [ZnL]/[Zn][L] (stability constant): 25° C., μ = 0.10M (KCl); for pZn: pM = −log[M]free at pH7.4, [M]total = 1 μmol/dm^3, [L]total = 1.1 μmol/dm^3
[12] = literature data, cited from earlier work; for LogK [CaL]/[Ca][L] (stability constant): 25° C., μ = 0.10M (KCl)
[13] = literature data, cited from earlier work; for LogK [CuL]/[Cu][L] (stability constant): 25° C., μ = 0.10M (KCl); for pCu: pM = −log[M]free at pH7.4, [M]total = 1 μmol/dm^3, [L]total = 1.1 μmol/dm^3

Structure (SMILES) | LogK [GdL]/[Gd][L] (stability constant) [2] | logKGdL(pH7.4) (conditional stability constant) [2] | LogK [H2L]/[HL][H] (protonation constant) [3] | LogK [H3L]/[H2L][H] (protonation constant) [3] | LogK [H4L]/[H3L][H] (protonation constant) [3] | LogK [HL]/[L][H] (protonation constant) [3] | ΣpKa (overall basicity) [3] | logKCaL(pH7.4) (conditional stability constant) [6] | pCa [6] | logKCuL(PH7.4) (conditional stability constant) [7] | pCu [7] | LogK [H2L]/[HL][H] (protonation constant) [8] | LogK [H3L]/[H2L][H] (protonation constant) [8] | LogK [HL]/[L][H] (protonation constant) [8] | logKZnL(pH7.4) (conditional stability constant) [9] | pZn [9] | logKsel(Gd/Ca) (selectivity constant) [10] | logKsel(Gd/Cu) (selectivity constant) [10] | logKsel(Gd/Zn) (selectivity constant) [10] | logKGdL(pH7.4) (conditional stability constant) [10] | other results
O.O=C([O-])CN1CCN(CC(=O)[O-])CCN(CC(=O)NCC2CCC(C(=O)O)CC2)CCN(CC(=O)[O-])CC1.[Gd+3] (stereo not drawn) [Compound 5a] | – | – | – | – | – | – | – | – | – | – | – | – | – | – | – | – | – | – | – | – | R1 relaxivity [1]: 3.9 ± 0.04 mM⁻¹ s⁻¹; R2 relaxivity [1]: 4.0 ± 0.04 mM⁻¹ s⁻¹; T1 relaxation time [1]: 256.43 ± 2.63^a msec; T2 relaxation time [1]: 250.02 ± 2.50 ms
CCOc1ccc(C[C@@H](CN(CCN(CC(=O)O)CC(=O)O)CC(=O)O)N(CC(=O)O)CC(=O)O)cc1 [EOB-DTPA] | 23.46 | 18.7 | 8.63 | 4.26 | 2.73 | 10.91 | 26.53 | – | – | – | – | – | – | – | – | – | – | – | – | – | –
CNC[C@H](O)[C@@H](O)[C@H](O)[C@H](O)CO.CNC[C@H](O)[C@@H](O)[C@H](O)[C@H](O)CO.O=C([O-])CN(CCN(CC(=O)[O-])CC(=O)O)CCN(CC(=O)O)C(COCc1ccccc1)C(=O)[O-].[Gd+3] (stereo not drawn) [Multihance] | – | – | – | – | – | – | – | – | – | – | – | – | – | – | – | – | – | – | – | – | pattern of evolution of the paramagnetic relaxation rate R1P(t)/R1P(0) (in words) [4]: drastic decrease in the rate; R1 relaxivity [5]: 4.0 ± 0.2 mM⁻¹ s⁻¹; R2 relaxivity [5]: 4.3 ± 0.5 mM⁻¹ s⁻¹; T1 relaxation time [5]: 250.62 ± 12.5 ms; T2 relaxation time [5]: 235 ± 27.4 ms
O=C(O)CN1CCN(CC(=O)O)CCN(CC(=O)NCC2CCC(C(=O)O)CC2)CCN(CC(=O)O)CC1 (stereo not drawn) [Compound 4a, DO3A-tranexamic acid] | – | – | – | – | – | – | – | 8.16 | 7.16 | 11.70 | 10.70 | 8.91 | 4.93 | 11.73 | 10.86 | 9.86 | 10.56 | 7.02 | 7.87 | 18.73 | LogK [H4L]/[H3L][H] (protonation constant) [8]: 4.87; pGd [10]: 17.73
C=CCOC(=O)C1CCC(CNC(=O)CN2CCN(CC(=O)O)CCN(CC(=O)O)CCN(CC(=O)O)CC2)CC1 (stereo not drawn) [Compound 4c, DO3A-tranexamic Acid Ester Derivative 2] | – | – | – | – | – | – | – | 10.44 | 9.43 | 14.77 | 13.77 | 8.64 | 5.45 | 10.62 | 13.08 | 12.08 | 6.55 | 2.21 | 3.91 | 16.99 | pGd [10]: 15.99
CNC[C@H](O)[C@@H](O)[C@H](O)[C@H](O)CO.O=C([O-])CN1CCN(CC(=O)[O-])CCN(CC(=O)O)CCN(CC(=O)[O-])CC1.[Gd+3] [Dotarem] | – | – | – | – | – | – | – | – | – | – | – | – | – | – | – | – | – | – | – | – | R1 relaxivity [1]: 3.7 ± 0.04 mM⁻¹ s⁻¹; R2 relaxivity [1]: 4.1 ± 0.21 mM⁻¹ s⁻¹; T1 relaxation time [1]: 270.30 ± 2.92 ms; T2 relaxation time [1]: 244.54 ± 12.5 ms
CCOC(=O)C1CCC(CNC(=O)CN2CCN(CC(=O)O)CCN(CC(=O)O)CCN(CC(=O)O)CC2)CC1 (stereo not drawn) [Compound 4b, DO3A-tranexamic Acid Ester Derivative 1] | – | – | – | – | – | – | – | 10.06 | 9.06 | 12.04 | 11.04 | 9.35 | 5.24 | 10.80 | 11.29 | 10.29 | 6.65 | 4.68 | 5.43 | 16.72 | pGd [10]: 15.72
O=C(O)CN1CCN(CC(=O)O)CCN(CC(=O)O)CCN(CC(=O)O)CC1 [DOTA] | 25.30 | 18.33 | 9.68 | 4.55 | 4.13 | 12.09 | 30.45 | – | – | – | – | – | – | – | – | – | – | – | – | – | LogK [ZnL]/[Zn][L] (stability constant) [11]: 21.05; logKZnL(pH7.4) (conditional stability constant) [11]: 14.08; pZn [11]: 15.19; LogK [CaL]/[Ca][L] (stability constant) [12]: 17.23; logKCaL(pH7.4) (conditional stability constant) [12]: 10.26; logKsel(Gd/Ca) (selectivity constant) [2]: 8.07; logKsel(Gd/Cu) (selectivity constant) [2]: 2.67; logKsel(Gd/Zn) (selectivity constant) [2]: 4.25; pGd [2]: 19.2; LogK [CuL]/[Cu][L] (stability constant) [13]: 22.63; logKCuL(PH7.4) (conditional stability constant) [13]: 15.66; pCu [13]: 14.05
O=C(O)CN(CCN(CC(=O)O)CC(=O)O)CCN(CC(=O)O)CC(=O)O [DTPA] | 22.46 | 18.14 | 8.60 | 4.28 | 2.64 | 10.49 | 26.01 | – | – | – | – | – | – | – | – | – | – | – | – | – | LogK [ZnL]/[Zn][L] (stability constant) [11]: 18.70; logKZnL(pH7.4) (conditional stability constant) [11]: 14.38; pZn [11]: 13.39; LogK [CaL]/[Ca][L] (stability constant) [12]: 10.75; logKCaL(pH7.4) (conditional stability constant) [12]: 6.43; pCa ([12]; pM = −log[M]free at pH7.4, [M]total = 1 μmol/dm^3, [L]total = 1.1 μmol/dm^3): 5.45; logKsel(Gd/Ca) (selectivity constant) [2]: 11.71; logKsel(Gd/Cu) (selectivity constant) [2]: 1.08; logKsel(Gd/Zn) (selectivity constant) [2]: 3.76; pGd [2]: 17.14; LogK [CuL]/[Cu][L] (stability constant) [13]: 21.38; logKCuL(PH7.4) (conditional stability constant) [13]: 17.06; pCu [13]: 16.06
O=C(O)CN(CCN(CC(=O)O)CC(=O)O)CCN(CC(=O)O)C(COCc1ccccc1)C(=O)O (stereo not drawn) [BOPTA] | 22.6 | 18.4 | 8.21 | 4.35 | 2.83 | 10.71 | 26.10 | – | – | – | – | – | – | – | – | – | – | – | – | – | logKZnL(pH7.4) (conditional stability constant) [11]: 13.9; logKCuL(PH7.4) (conditional stability constant) [13]: 17.3
